# Measured values reported in patent publication US8193180B2, “N-amino tetrahydrothiazine derivatives, method of manufacture and use” (Women & Infants Hospital, priority 2007, dated 2012).
# Legend:
# [1] = test system: SMS-KCNR neuroblastoma cells; experiment: cells; conditions: Homo sapiens, 48 h, read-out: cell viability, mean value
# Protocol: SMS-KCNR neuroblastoma cells were incubated for 48 hours with increasing levels of either nifurtimox or RKS-2-62, and cytotoxicity was determined using the Calcein AM cell viability assay. […] SMSKCNR cells were plated in 48 wells plates and treated with 0-20 μg/mL of either RKS-2-62 or nifurtimox for 48 hours. Cell viability was assessed using Calcein AM assay.
# SMSKCNR cells [2] = experiment: Neuroblastoma xenograft mouse model, oral dosing in food pellets; conditions: 3 weeks
# Protocol: Nude mice were injected subcutaneously in the flank with 10^7 SMSKCNR cells and tumors were allowed to grow for 7 days. Mice were then fed either control food pellets or pellets containing 50, 100, or 150 mg/kg/day of RKS-2-62 for 3 weeks (4 mice per group). Tumors were harvested and weighed.
# [3] = test system: DAOY medulloblastoma cells; experiment: Calcein AM cell viability assay, DAOY medulloblastoma cells; type: cell-based; conditions: 48 hours
# Description: (§1) For the D283 cell line, viability after exposure to RKS was decreased compared to nifurtimox (P=0.008), with similar results for the DAOY cell line (P=0.026).
# [4] = Chloroform/water partition test; type: physicochemical
# Protocol: In addition, RKS-2-26 is lipid soluble and likely to cross the blood brain barrier. […] Then 1 mL of distilled water was added and vortexed.
# [5] = test system: D283 medulloblastoma cells; experiment: Calcein AM cell viability assay, D283 medulloblastoma cells; type: cell-based; conditions: 48 hours
# Description: as §1
# SMSKCNR cells [6] = experiment: Reactive oxygen species, carboxylated DCF flow cytometry; type: cell-based, human; conditions: 90 minutes incubation, vs control
# Protocol: RKS-2-62 increases reactive oxygen species in neuroblastoma cells. SMSKCNR cells treated with RKS-2-62 were incubated with carboxyl-DCF. SMSKCNR cells were grown in T25 flasks and incubated in RKS-2-62 for 90 minutes prior to treatment with carboxylated DCF. Cells were collected and analyzed by flow cytometry. […] Control is the left hand peak in grey. RKS-2-62 is the right hand peak. Oxidation of DCF by reactive oxygen species (ROS) causes increased fluorescence, and a lower concentration of RKS-2-62 than of nifurtimox was required to achieve the same effect.
# [7] = test system: Stage IV pancreatic cancer; experiment: Treatment of pancreatic cancer, patient case (Example 7); type: in vivo, human; conditions: 10 mg/kg/day tablets every other day for 30 days (15 doses)
# Protocol: A subject presents with Stage IV pancreatic cancer. The subject is treated daily with 10 mg/kg/day of N-(3-methyl-1,1-dioxo-1,4-thiazinan-4-yl)-1-[1-phenyl, 1-acetic acid]methane by tablets every other day for 30 consecutive days (15 doses). Upon examination, cancer involvement is found reduced by about 20%.
# [8] = test system: Stage V Alzheimer's disease; experiment: Alzheimer treatment, patient case (second Example 10); type: in vivo, human; conditions: 5 mg/kg oral daily, chronically, six month period
# Protocol: A subject presents with Stage V Alzheimer's disease. The subject is treated daily with 5 mg/kg oral doses of N-(3-methyl-1,1-dioxo-1,4-thiazinan-4-yl)-1-[3,4,5-trimethoxy phenyl sulfonyl], chronically.
# stage III ovarian cancer = experiment: Ovarian cancer treatment, patient case (Example 10); type: in vivo, human; conditions: 10 mg/kg daily orally or IV for 48 days
# Protocol: A subject presents with recurrent/progressive stage III ovarian cancer refractory to all other treatments. The subject is treated daily with 10 mg/kg of N-(3-methyl-1,1-dioxo-1,4-thiazinan-4-yl)-1-[3-chloro, 5-bromo coumarin-2-carbonyl] orally or IV for 48 days.
# end stage liver cancer = experiment: Liver cancer treatment, patient case (Example 9); type: in vivo, human; conditions: 10 mg/kg daily orally or IV for 48 days
# Protocol: A subject presents with end stage liver cancer refractory to all other treatments. The subject is treated daily with 10 mg/kg of N-(3-methyl-1,1-dioxo-1,4-thiazinan-4-yl)-1-[1-phenyl, 1-furan-2-yl] orally or IV for 48 days.
# breast cancer = experiment: Breast cancer prophylaxis, patient case (Example 8); type: in vivo, human; conditions: 5 mg/kg daily by tablets for 48 months, BRCA 1 and 2 markers
# Protocol: A subject presents normally, but has BRCA 1 and 2 markers as well as a family history of breast cancer. The subject is treated daily with 5 mg/kg of N-(3-methyl-1,1-dioxo-1,4-thiazinan-4-yl)-1-[5,6-dimethoxy coumarin-2-yl]methanimine by tablets for 48 months.
# Stage IV breast cancer = experiment: Treatment of breast cancer, patient case (Example 6); type: in vivo, human; conditions: 10 mg/kg/day orally or IV daily for 15 consecutive days
# Protocol: A subject presents with Stage IV breast cancer and axillary lymph node involvement. The subject is treated with 10 mg/kg/day of N-(3-methyl-1,1-dioxo-1,4-thiazinan-4-yl)-1-[1-phenyl, 1-methanol]methane orally or IV daily for 15 consecutive days. Upon examination, cancer involvement is found reduced by about 20%.
# Stage IV neuroblastoma = experiment: Treatment of neuroblastoma, patient case (Example 5); type: in vivo, human
# Description: A person presents with Stage IV neuroblastoma. […] Upon examination, tumor mass is found reduced by about 50%.
structure (smiles),measurement,setting,value
CC1CS(=O)(=O)CCN1N=Cc1c(Cl)c2cc(Br)ccc2oc1=O (stereo not shown) [RKS-2-62],viability at 5 µg/mL,[1],51.9%
same,decrease of tumor weight compared to the control group,SMSKCNR cells [2]; 50 mg/kg/day oral in food pellets,greater than 75%
same,decrease of tumor weight compared to the control group,SMSKCNR cells [2]; 100 mg/kg/day oral in food pellets,greater than 75%
same,decrease of tumor weight compared to the control group,SMSKCNR cells [2]; 150 mg/kg/day oral in food pellets,greater than 75%
same,tolerability compared with nifurtimox,"SMSKCNR cells [2]; mice, oral",better tolerated in mice than nifurtimox
same,growth inhibition compared with nifurtimox,[3]; 0-10 μg/mL,inhibited the growth of both cell lines in a dose-dependent fashion and to a greater extent than nifurtimox
same,cytotoxicity at 10 µg/mL,"[3]; Homo sapiens, 10 μg/mL, read-out: decrease of viability",> 80%
same,lipid solubility,[4],lipid soluble
same,distribution between chloroform layer and aqueous layer,"[4]; 10 μg/μL in chloroform, 1 mL distilled water added, vortexed",remained solely in the chloroform layer and not the aqueous layer
same,solubility in chloroform,[4]; solution of 10 μg/μL,shown to dissolve in chloroform
same,growth inhibition compared with nifurtimox,[5]; 0-10 μg/mL,inhibited the growth of both cell lines in a dose-dependent fashion and to a greater extent than nifurtimox
same,cytotoxicity at 10 µg/mL,"[5]; 10 μg/mL, read-out: decrease of viability",> 80%
same,production of ROS (DCF fluorescence),SMSKCNR cells [6],increase in production of ROS
"CC1CS(=O)(=O)CCN1NC(CC(=O)O)c1ccccc1 (stereo not shown) [N-(3-methyl-1,1-dioxo-1,4-thiazinan-4-yl)-1-[1-phenyl, 1-acetic acid]methane]",reduction of cancer involvement,[7],about 20%
"COc1cc(S(=O)(=O)NN2CCS(=O)(=O)CC2C)cc(OC)c1OC (stereo not shown) [N-(3-methyl-1,1-dioxo-1,4-thiazinan-4-yl)-1-[1-(3,4,5-trimethoxyphenylsulfonyl]]",progression of the disease,[8],substantially no progression of the disease is noted
CC1CS(=O)(=O)CCN1NC(=O)c1c(Cl)c2cc(Br)ccc2oc1=O (stereo not shown),tumor growth upon examination,stage III ovarian cancer,no further tumor growth is noted
"CC1CS(=O)(=O)CCN1N(c1ccccc1)c1ccco1 (stereo not shown) [N-(3-methyl-1,1-dioxo-1,4-thiazinan-4-yl)-1-[1-phenyl, 1-furan-2-yl]]",liver cancer involvement upon examination,end stage liver cancer,no liver cancer involvement is found
COc1cc2cc(C=NN3CCS(=O)(=O)CC3C)c(=O)oc2cc1OC (stereo not shown),cancer involvement upon examination,breast cancer,no cancer involvement is found
"CC1CS(=O)(=O)CCN1NC(CO)c1ccccc1 (stereo not shown) [N-(3-methyl-1,1-dioxo-1,4-thiazinan-4-yl)-1-[1-phenyl, 1-methanol]methane]",reduction of cancer involvement,Stage IV breast cancer,about 20%
"CC1CS(=O)(=O)CCN1/N=C\c1ccc([N+](=O)[O-])o1 (stereo not shown) [nifurtimox, reference compound]",viability at 5 µg/mL,[1],88.4%
"CC1CS(=O)(=O)CCN1NC(c1ccccc1)c1ccccc1 (stereo not shown) [N-(3-methyl-1,1-dioxo-1,4-thiazinan-4-yl)-1-[1,1-diphenyl]methane]",tumor response,Stage IV neuroblastoma; 15 mg/kg/day orally or IV for 2 weeks,tumor stabilization
same,reduction of tumor mass,"Stage IV neuroblastoma; with further addition of cyclophosphamide and topotecan, 8 weeks",about 50%
